Measurements taken from patent publication US10590178B2 (priority 2014, dated 2020).

Columns and labels:
Met6-8MAP = test: Serum antibody ELISA after immunization, plates coated with Met6-8MAP; type: in vivo; conditions: after first booster; serum diluted 1:200; alum adjuvant; OD 492 nm
Procedure: Sera antibody titers were analyzed by ELISA. For DC-based immunization, the control groups were mice given DCs alone, or given DPBS alone, for all three injections. […] Fbb-8MAP or Met6-8MAP was dissolved at 5 μg/ml in PBS (pH 7.4), and used to coat 96-well ELISA plates with duplicate, serial, 2-fold dilutions of samples of each immune serum and control serum. Each well was treated with secondary antibody (goat anti-mouse polyvalent Ig-HRP, Sigma) and substrate (o-phenylenediamine and H2O2). Optical density was measured at 492 nm.
Serum samples were collected 14 days after immunization, diluted 1:200, and tested by ELISA on plates coated with the applicable peptide-8MAP conjugate. […] However, the immune responses to the MAP conjugates were substantially weaker than those induced by peptide-pulsed DC immunization.

C. albicans = test: Chimeric double peptide-pulsed DC vaccination versus single peptides and mixture, lethal Candida challenge in mice (survival, kidney CFUs); conditions: for kidney CFUs: compared to non-immune mice / other vaccines
Procedure: Different groups of dendritic cells (DCs) were pulsed in vitro with Fba peptide, Met6 peptide, Fba-Met6 chimeric double peptide, or a mixture of the two peptides Fba and Met6. Briefly, DCs in culture were pulsed with the peptide antigen (1 μM) on day 6. On day 7, PGE2 (10^−7 M) was added along with LPS (2 μg/ml, Sigma) for 24 h. On day 9, antigen-pulsed DCs were washed extensively and 5×10^5 cells in 200 μl DPBS were injected into mice i.p. with complete Freund's adjuvant as the priming dose. The mice were boosted i.p. at day 14 with fresh antigen-pulsed DCs and adjuvant. The mice were again boosted i.p. at day 28 with fresh antigen-pulsed DCs, but the final boost used no adjuvant.
Two weeks after the second boost, immunized and control mice were both infected i.v. with a lethal dose of live C. albicans yeast cells (5×10^5 in 0.1 ml of DPBS), prepared as described above. Passively immunized mice (see below) also received the same challenge dose. Protection was evaluated by monitoring animal survival for 50-60 days. The mice were monitored for the development of a moribund state: defined as being listless, disinterested in food or water, and nonreactive to finger probing. Once a mouse was deemed moribund, it was sacrificed and its kidneys were homogenized in DPBS and plated onto a nutrient agar to determine the number of colony forming units of yeast (CFUs).

| Sequence | antibody response compared to negative control mice (DPBS or adjuvant only) (Met6-8MAP) | kidney CFUs (C. albicans; listed as Fba-Met6 chimeric double peptide vaccine) | kidney CFUs (C. albicans; listed as Fba-Met6 conjugate) | survival rate / protection (C. albicans; up to 60 days (end of experiment)) [%] |
| --- | --- | --- | --- | --- |
| PRIGGQRELKKITE (Met6 peptide) [14-mer peptide from C. albicans cell wall protein Met6] | 4-5 fold | – | – | – |
| YGKDVKDLFDYAQEKKPRIGGQRELKKITE [Fba-KK-Met6] | – | only one mouse in that group exhibited any detectable kidney CFUs | much lower CFUs in kidneys | 100 |
